We go through eleven compounds from US20250320206A1, “STAT6 DEGRADERS” (Gilead Sciences, Inc., priority 2024, published 2025).

pEC50: −log10 of the molar value.

One assay concerns the target T1, STAT6 (Homo sapiens, UniProt P42226).
T1 construct: These cells express endogenous STAT6; host or cells: HeLa LgBiT clone 4.14
T1 sequence (P42226 1-847): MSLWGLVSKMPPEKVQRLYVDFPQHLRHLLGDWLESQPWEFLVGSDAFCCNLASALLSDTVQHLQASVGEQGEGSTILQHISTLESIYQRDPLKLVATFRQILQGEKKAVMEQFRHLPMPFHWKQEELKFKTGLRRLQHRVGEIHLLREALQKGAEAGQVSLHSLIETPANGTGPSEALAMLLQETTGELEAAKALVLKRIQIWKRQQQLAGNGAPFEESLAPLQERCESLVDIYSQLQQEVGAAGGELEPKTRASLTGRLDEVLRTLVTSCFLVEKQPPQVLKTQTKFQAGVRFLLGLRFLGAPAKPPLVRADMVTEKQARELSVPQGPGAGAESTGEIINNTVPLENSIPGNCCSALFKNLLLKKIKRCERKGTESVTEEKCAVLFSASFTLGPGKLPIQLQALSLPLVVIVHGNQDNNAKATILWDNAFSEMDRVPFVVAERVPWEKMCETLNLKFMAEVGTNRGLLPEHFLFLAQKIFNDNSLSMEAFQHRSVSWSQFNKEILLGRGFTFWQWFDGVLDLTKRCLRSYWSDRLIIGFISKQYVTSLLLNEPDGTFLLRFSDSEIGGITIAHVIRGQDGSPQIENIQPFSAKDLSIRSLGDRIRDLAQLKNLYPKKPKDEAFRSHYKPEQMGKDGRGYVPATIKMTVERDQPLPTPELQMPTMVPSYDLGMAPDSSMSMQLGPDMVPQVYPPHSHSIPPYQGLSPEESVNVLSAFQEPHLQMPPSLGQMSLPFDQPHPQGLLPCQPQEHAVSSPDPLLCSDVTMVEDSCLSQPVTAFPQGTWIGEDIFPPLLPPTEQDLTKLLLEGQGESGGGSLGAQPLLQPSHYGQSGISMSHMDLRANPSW
Put plainly: Stat6 Degrader Assay (HiBiT based, HeLa LgBiT clone 4.14). Type of assay: cell-based. The conditions noted are these: HeLa LgBiT clone 4.14 HiBiT-STAT6, 4-24 h incubation; values given for compounds with >80% Emax; geometric mean; read-out: STAT6 degradation DC50. The gist of the method: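 HeLa LgBiT clone 4.14 cells with CRISPR HiBiT-tagged endogenous STAT6, 5000 cells/well, compound dosed then incubated 4-24 h at 37° C, 5% CO2. Nano-Glo substrate added, 0.5 h, luminescence read as non-degraded STAT6. Terfenadine 50 μM (cell kill) defines 100% degradation.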

Assay [1] has as its system Eotaxin-3 release in human whole blood stimulated with IL-4. The experiment in a line: Human Whole Blood Eotaxin-3 Assay (IL-4 stimulated eotaxin-3 release). It is filed as cell-based. The conditions noted are these: IL-4 stimulation, 48 h, values given for compounds with >80% Emax, geometric mean. A digest of the protocol:
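Lithium-heparin human whole blood preincubated 2 h at 37° C with 4-fold serially diluted compounds (0.5% DMSO), then stimulated with recombinant human IL-4 ([…]) for 48 h. Eotaxin-3 (CCL26) in supernatant quantified by MSD immunoassay.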

`CNc1ccn(-c2ccnc3c2cc([C@H](C)N2CC=C(c4c(C)cc(C(=O)N(C)C5CCC(N6CCN(Cc7ccc8c(c7)n(C)c(=O)n8C7CCC(=O)NC7=O)CC6)CC5)cc4F)CC2)n3C)c(=O)c1` (stereo partly drawn) [Example 3u238, N-(4-(4-((1-(2,6-dioxopiperidin-3-yl)-3-methyl-2-oxo-2,3-dihydro-1H-benzo[d]-imidazol-5-yl)methyl)piperazin-1-yl)cyclohexyl)-3-fluoro-N,5-dimethyl-4-(1-((S)-1-(1-methyl-4-(4-(methylamino)-2-oxopyridin-1 (2H)-yl)-1H-pyrrolo[2,3-b]pyridin-2-yl)ethyl)-1,2,3,6-tetrahydropyridin-4-yl)benzamide]: on STAT6, the DC50 was 1400 pM. For the same compound, the pEC50 in assay [1] was 8.49.

For the compound `CNc1cc(=O)n(-c2ccnc3c2cc([C@H](C)N2CC=C(c4c(C)cc(C(=O)N(C)c5ccc(N6CCN(Cc7ccc8c(c7)C7(CC7)C(=O)N8C7CCC(=O)NC7=O)CC6)nc5)cc4F)CC2)n3C)cc1F` (stereo partly drawn) [Example 3u239, N-(6-(4-((1′-(2,6-dioxopiperidin-3-yl)-2′-oxospiro[cyclopropane-1,3′-indolin]-5′-yl)-methyl)piperazin-1-yl)pyridin-3-yl)-3-fluoro-4-(1-((S)-1-(4-(5-fluoro-4-(methylamino)-2-oxopyridin-1 (2H)-yl)-1-methyl-1H-pyrrolo[2,3-b]pyridin-2-yl)ethyl)-1,2,3,6-tetrahydropyridin-4-yl)-N,5-dimethyl-benzamide], the DC50 on STAT6 came out at 100 pM. In assay [1], this compound showed a pEC50 of 8.92.

For the compound `CNc1cc(=O)n(-c2ccnc3c2cc([C@H](C)N2CC=C(c4c(C)cc(C(=O)N(C)c5ccc(N6CCC(O)(Cc7ccc8c(c7)C7(CC7)C(=O)N8C7CCC(=O)NC7=O)CC6)nc5)cc4F)CC2)n3C)cc1F` (stereo partly drawn) [Example 3u240, N-(6-(4-((1′-(2,6-dioxopiperidin-3-yl)-2′-oxospiro[cyclopropane-1,3′-indolin]-5′-yl)methyl)-4-hydroxypiperidin-1-yl)pyridin-3-yl)-3-fluoro-4-(1-((S)-1-(4-(5-fluoro-4-(methylamino)-2-oxopyridin-1 (2H)-yl)-1-methyl-1H-pyrrolo[2,3-b]pyridin-2-yl)ethyl)-1,2,3,6-tetrahydropyridin-4-yl)-N,5-dimethylbenzamide], the DC50 at STAT6 turned out to be 1100 pM. In assay [1], this compound had a pEC50 of 8.89.

Turning to `CNc1cc(=O)n(-c2ccnc3c2cc([C@H](C)N2CC=C(c4c(C)cc(C(=O)N(C)c5ccc(N6CCC(Cc7ccc8c(c7)n(C)c(=O)n8C7CCC(=O)NC7=O)CC6)nc5)cc4F)CC2)n3C)cc1F` (stereo partly drawn) [Example 3u241, N-(6-(4-((1-(2,6-dioxopiperidin-3-yl)-3-methyl-2-oxo-2,3-dihydro-1H-benzo[d]-imidazol-5-yl)methyl)piperidin-1-yl)pyridin-3-yl)-3-fluoro-4-(1-((S)-1-(4-(5-fluoro-4-(methylamino)-2-oxopyridin-1 (2H)-yl)-1-methyl-1H-pyrrolo[2,3-b]pyridin-2-yl)ethyl)-1,2,3,6-tetrahydropyridin-4-yl)-N,5-dimethylbenzamide], the DC50 at STAT6 is 100 pM. For the same compound, in assay [1], the pEC50 is 9.70.

On to `CNc1ccn(-c2ccnc3c2cc(CN2CCC(c4c(F)cc(C(=O)N(C)c5ccc(C6CCN(Cc7ccc8c(c7)n(C)c(=O)n8C7CCC(=O)NC7=O)CC6)cc5)cc4F)CC2)n3C)c(=O)c1` (stereo not shown) [Example 3u244, N-(4-(1-((1-(2,6-dioxopiperidin-3-yl)-3-methyl-2-oxo-2,3-dihydro-1H-benzo[d]imidazol-5-yl)methyl)piperidin-4-yl)phenyl)-3,5-difluoro-N-methyl-4-(1-((1-methyl-4-(4-(methylamino)-2-oxopyridin-1 (2H)-yl)-1H-pyrrolo[2,3-b]pyridin-2-yl)methyl)piperidin-4-yl)benzamide], for which the DC50 at STAT6 is 100 pM. The compound also showed a pEC50 in assay [1] of 9.52.

On to `CNc1cc(=O)n(-c2ccnc3c2cc(CN2CCC(c4c(F)cc(C(=O)N(C)c5ccc(C6CCN(Cc7ccc8c(c7)n(C)c(=O)n8C7CCC(=O)NC7=O)CC6)cc5)cc4F)CC2)n3C)cc1F` (stereo not shown) [Example 3u245, N-(4-(1-((1-(2,6-dioxopiperidin-3-yl)-3-methyl-2-oxo-2,3-dihydro-1H-benzo[d]imidazol-5-yl)methyl)piperidin-4-yl)phenyl)-3,5-difluoro-4-(1-((4-(5-fluoro-4-(methylamino)-2-oxopyridin-1 (2H)-yl)-1-methyl-1H-pyrrolo[2,3-b]pyridin-2-yl)methyl)piperidin-4-yl)-N-methylbenzamide], for which the half-maximal degradation concentration (DC50) at STAT6 is 100 pM. In assay [1], the pEC50 was 10.00.

With `CNc1ccn(-c2ccnc3c2cc(CN2CC=C(c4c(C)cc(C(=O)N(C)c5ccc(C6CCN(Cc7ccc8c(c7)n(C)c(=O)n8C7CCC(=O)NC7=O)CC6)cc5)cc4F)CC2)n3C)c(=O)c1` (stereo not shown) [Example 3u247, N-(4-(1-((1-(2,6-dioxopiperidin-3-yl)-3-methyl-2-oxo-2,3-dihydro-1H-benzo[d]-imidazol-5-yl)methyl)piperidin-4-yl)phenyl)-3-fluoro-N,5-dimethyl-4-(1-((1-methyl-4-(4-(methyl-amino)-2-oxopyridin-1 (2H)-yl)-1H-pyrrolo[2,3-b]pyridin-2-yl)methyl)-1,2,3,6-tetrahydropyridin-4-yl)benzamide], the DC50 on STAT6 was found to be 40 pM. Also, the pEC50 in assay [1] is 9.52.

In the case of `CNc1ccn(-c2ccnc3c2cc(CN2CCC(c4c(C)cc(C(=O)N(C)c5ccc(C6CCN(Cc7ccc8c(c7)n(C)c(=O)n8C7CCC(=O)NC7=O)CC6)cc5)cc4F)CC2)n3C)c(=O)c1` (stereo not shown) [Example 3u248, N-(4-(1-((1-(2,6-dioxopiperidin-3-yl)-3-methyl-2-oxo-2,3-dihydro-1H-benzo[d]imidazol-5-yl)methyl)piperidin-4-yl)phenyl)-3-fluoro-N,5-dimethyl-4-(1-((1-methyl-4-(4-(methylamino)-2-oxopyridin-1 (2H)-yl)-1H-pyrrolo[2,3-b]pyridin-2-yl)methyl)piperidin-4-yl)benzamide], the DC50 at STAT6 is 200 pM. The same compound had a pEC50 in assay [1] of 9.52.

As to `CNc1ccn(-c2ccnc3c2cc([C@H](C)N2CCC(c4c(C)cc(C(=O)N(C)c5ccc(C6CCN(Cc7ccc8c(c7)n(C)c(=O)n8C7CCC(=O)NC7=O)CC6)cc5)cc4F)CC2)n3C)c(=O)c1` (stereo partly drawn) [Example 3u249, N-(4-(1-((1-(2,6-dioxopiperidin-3-yl)-3-methyl-2-oxo-2,3-dihydro-1H-benzo[d]-imidazol-5-yl)methyl)piperidin-4-yl)phenyl)-3-fluoro-N,5-dimethyl-4-(1-((S)-1-(1-methyl-4-(4-(methyl-amino)-2-oxopyridin-1 (2H)-yl)-1H-pyrrolo[2,3-b]pyridin-2-yl)ethyl)piperidin-4-yl)benzamide], the DC50 at STAT6 came to 600 pM. This compound also showed a pEC50 in assay [1] of 8.85.

As to `Cc1cc(C(=O)N(C)c2ccc(C3CCN(Cc4ccc5c(c4)n(C)c(=O)n5C4CCC(=O)NC4=O)CC3)cc2)cc(F)c1C1=CCN([C@@H](C)c2cc3c(-n4ccc5c(c4=O)CCN5)ccnc3n2C)CC1` (stereo partly drawn) [Example 3u250, N-(4-(1-((1-(2,6-dioxopiperidin-3-yl)-3-methyl-2-oxo-2,3-dihydro-1H-benzo[d]imidazol-5-yl)methyl)piperidin-4-yl)phenyl)-3-fluoro-N,5-dimethyl-4-(1-((S)-1-(1-methyl-4-(4-oxo-1,2,3,4-tetrahydro-5H-pyrrolo[3,2-c]pyridin-5-yl)-1H-pyrrolo[2,3-b]pyridin-2-yl)ethyl)-1,2,3,6-tetrahydropyridin-4-yl)benzamide], the DC50 at STAT6 came to 100 pM. For the same compound, in assay [1], the pEC50 is 9.40.

`CN(C(=O)c1cc(F)c(C2CCN(Cc3cc4c(-n5ccc6c(c5=O)CCN6)ccnc4n3C)CC2)c(F)c1)c1ccc(C2CCN(Cc3ccc4c(c3)n(C)c(=O)n4C3CCC(=O)NC3=O)CC2)cc1` (stereo not shown) [Example 3u251, N-(4-(1-((1-(2,6-dioxopiperidin-3-yl)-3-methyl-2-oxo-2,3-dihydro-1H-benzo[d]-imidazol-5-yl)methyl)piperidin-4-yl)phenyl)-3,5-difluoro-N-methyl-4-(1-((1-methyl-4-(4-oxo-1,2,3,4-tetrahydro-5H-pyrrolo[3,2-c]pyridin-5-yl)-1H-pyrrolo[2,3-b]pyridin-2-yl)methyl)piperidin-4-yl)-benzamide]: on STAT6, the DC50 was 200 pM. Besides, in assay [1], the pEC50 is 9.05.
